Results reported in PubChem BioAssay (NCI).
Several values for one entry are separate records, joined by “and”; a condition that tells them apart may be missing. Identical values can stand only once.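 Growth conditions: 96-well plates. Treatment: test compound, 48 hours, 5 concentrations. Analysis: linear interpolation between bracketing concentrations; unreached endpoints set to highest concentration. GI50 is the concentration that inhibits growth by half. TGI: total growth inhibition.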

Key:
Assay in all cases: NCI tumour cell line growth inhibition, 48 h
OVCAR-5 ovarian = system: OVCAR-5 ovarian
EKVX NSCLC = system: EKVX NSCLC
SNB-78 CNS = system: SNB-78 CNS
HCT-116 colon = system: HCT-116 colon
KM12 colon = system: KM12 colon
HOP-92 NSCLC = system: HOP-92 NSCLC
DMS 273 small cell lung = system: DMS 273 small cell lung
A498 renal = system: A498 renal
T-47D breast = system: T-47D breast
PC-3 prostate = system: PC-3 prostate

| SMILES | TGI (OVCAR-5 ovarian) | TGI (EKVX NSCLC) [µM] | TGI (SNB-78 CNS) [µM] | TGI (HCT-116 colon) | TGI (KM12 colon) | TGI (HOP-92 NSCLC) | TGI (DMS 273 small cell lung) | TGI (A498 renal) [µM] | GI50 (OVCAR-5 ovarian) [µM] | GI50 (DMS 273 small cell lung) [µM] | GI50 (HCT-116 colon) [µM] | GI50 (KM12 colon) [µM] | GI50 (HOP-92 NSCLC) [µM] | TGI (T-47D breast) [µM] | TGI (PC-3 prostate) [µM] | GI50 (SNB-78 CNS) [µM] |
| --- | --- | --- | --- | --- | --- | --- | --- | --- | --- | --- | --- | --- | --- | --- | --- | --- |
| COc1ccc(/C=c2\sc3n(c2=O)CCN=3)cc1 | > 100 µM | > 100 | > 100 | > 100 µM | > 100 µM | 95.8 µM | – | – | – | – | – | – | – | – | – | – |
| CC1=C(Cl)C=CP(=O)(Oc2ccccc2)C1 (stereo not drawn) | > 100 µM | > 100 | > 100 | > 100 µM | > 100 µM | > 100 µM | 75.9 µM | – | – | – | – | – | – | – | – | – |
| COC(=O)[C@@H](O)[C@](O)(CCC(C)C)C(=O)O[C@@H]1C(OC)=C[C@]23CCCN2CCc2cc4c(cc2[C@H]13)OCO4 | 15.2 µM | 6.09 | 10.9 | 2.57 µM | 13 µM | 6.26 µM | 3.47 µM | 4.45 | – | – | – | – | – | – | – | – |
| CCCCCCCC/C=C\CCCCCCCCCCCC(=O)O | > 125 µM | 92.8 | > 115 | 60.9 µM | 70.8 µM | 101 µM | 48.7 µM | – | – | – | – | – | – | – | – | – |
| Nc1nc(SCCC/C=C/I)nc2c1ncn2C1OC(COP(=O)(O)O)C(O)C1O (stereo not drawn) | > 100 µM | > 100 | > 100 | > 100 µM | > 100 µM | > 100 µM | > 100 µM | > 100 | – | – | – | – | – | – | – | – |
| O=C1C=C[C@@H](COC2OC(CO)C(O)C(O)C2O)O1 (stereo partly drawn) | 50.4 µM and 36.8 µM | 39.1 | – | 10.5 µM and > 100 µM | 11.6 µM and 17.4 µM | 30.3 µM and 36 µM | 13.9 µM and 39.6 µM | 30.6 | 28.5 | 2.44 | 2.63 | 3.16 | 14.3 | – | – | – |
| O=c1[nH]c(=S)[nH]c2c1C(c1ccc([N+](=O)[O-])cc1)c1c([nH]c(=S)[nH]c1=O)O2 | > 100 µM | > 100 | – | > 100 µM | > 100 µM | > 100 µM | – | > 100 | – | – | – | – | – | > 100 | > 100 | – |
| Cc1ccc(NC(=O)CC2Sc3ccccc3NC2=O)cc1C (stereo not drawn) | > 100 µM | > 100 | > 100 | > 100 µM | > 100 µM | 95.8 µM | > 100 µM | > 100 | – | – | – | – | – | – | – | – |
| COc1ccc2cc1Oc1ccc(cc1)C[C@H]1c3cc(c(OC)cc3CCN1C)Oc1c(O)c(OC)cc3c1[C@H](C2)N(C)CC3 | 99.6 µM | 8.53 | 117 | 36 µM | 42.6 µM | 26.9 µM | 40.1 µM | 50.4 | – | – | – | – | – | – | – | – |
| NC(N)=Nc1ccc(CC(N)NCC(=O)O)cc1 (stereo not drawn) | > 25 µM | > 25 | – | > 25 µM | > 25 µM | > 25 µM | – | > 25 | – | – | – | – | – | > 25 | > 25 | – |
| CC(C)=CCC[C@@H](C)c1c(O)c(O)c(C)c2nccnc12 | > 100 µM | > 100 | – | > 100 µM | > 72 µM | > 94.2 µM | – | > 86.1 | – | – | – | – | – | > 79.8 | > 100 | – |
| C[C@]12CCC3C4=C(CCC3C1CCC2=O)C(=O)[C@H]1O[C@H]1C4=O (stereo partly drawn) | 10.4 µM | 27.7 | – | 2.16 µM | 18.3 µM | 16.8 µM | – | 31.1 | – | – | – | – | – | 2.78 | 11.5 | – |
| COc1ccc(N=NC(=Nc2ccccc2)c2ccc(N(CCC#N)CCC#N)cc2)cc1 | > 100 µM | > 100 | – | > 100 µM | > 100 µM | > 100 µM | – | > 100 | – | – | – | – | – | > 100 | > 100 | – |
| Nc1nc2c(c(-c3cccc(Cl)c3)n1)COC/C2=C\c1cccc(Cl)c1 | > 100 µM | > 100 | – | > 100 µM | > 100 µM | > 100 µM | – | > 100 | – | – | – | – | – | > 100 | > 100 | – |
| O=[N+]([O-])c1ccc2[nH]nc(OCc3ccccc3Cl)c2c1 | > 100 µM | > 100 | – | 74.7 µM | > 100 µM | 47.4 µM | – | > 100 | – | – | – | – | – | 42.9 | > 100 | – |
| Cc1ccc(-c2csc(=Nc3ccccc3)n2NC(=O)c2ccncc2)cc1 | > 100 µM | > 100 | – | > 100 µM | > 100 µM | > 100 µM | – | > 100 | – | – | – | – | – | 58.7 | > 100 | – |
| NC1(c2cc3ccccc3s2)CCCC1 | > 100 µM | > 100 | – | > 100 µM | > 100 µM | > 100 µM | – | > 100 | – | – | – | – | – | > 100 | 81.4 | – |
| Cc1ccccc1C(=N)c1ccccc1Cc1cccc2ccccc12 | > 100 µM | > 100 | – | 46.9 µM | 41.9 µM | 54.8 µM | – | 95 | – | – | – | – | – | 38.4 | > 100 | – |
| Cc1cc(-c2nc3ccc(F)cc3s2)ccc1NC(=O)[C@H](C)N | 21.7 µM | 23 | – | 11.4 µM | 15.3 µM | 24.7 µM | – | 21.7 | – | – | – | – | – | > 37.4 | 24.3 | – |
| Cc1ccccc1OC(C)C(=O)NN1C(=O)CSC1c1ccccc1 (stereo not drawn) | > 100 µM | > 100 | – | > 100 µM | > 100 µM | > 100 µM | – | > 100 | – | – | – | – | – | > 100 | > 100 | – |
| Nc1c(S(=O)(=O)O)cc2cc(S(=O)(=O)O)ccc2c1N=Nc1ccc(-c2ccc(N=Nc3c(N)c(S(=O)(=O)O)cc4cc(S(=O)(=O)O)ccc34)c(S(=O)(=O)O)c2)cc1 | > 100 µM | > 100 | > 100 | > 100 µM | > 100 µM | > 100 µM | > 100 µM | > 100 | – | – | – | – | – | – | – | – |
| N#CC(NCc1cccc(CNC(C#N)c2ccccc2)c1)c1ccccc1 (stereo not drawn) | > 100 µM | > 100 | – | 56.4 µM | 56.6 µM | 89.8 µM | – | > 100 | – | – | – | – | – | > 100 | > 100 | – |
| Cc1ccnc(NS(=O)(=O)c2ccc(N=[N+]=[N-])cc2)n1 | > 100 µM | > 100 | – | > 100 µM | > 100 µM | > 100 µM | – | > 100 | – | – | – | – | – | > 100 | > 100 | – |
| COc1ccc2[nH]cc(/C=C(/C)c3ccncc3)c2c1 | 41.5 µM and > 100 µM | > 100 | > 100 | 16.8 µM and 20.5 µM | > 100 µM | > 100 µM and 52.6 µM | 19.6 µM and 10.5 µM | 42.5 | 11.6 | 2.37 | 3.67 | 0.796 | 13.3 | – | – | 9.43 |
